The values that follow come from PubChem BioAssay (NCI).

Some test systems named below: SR leukemia; HL-60(TB) leukemia; SN12C renal; KM12 colon; PC-3 prostate; LOX IMVI melanoma; IGROV1 ovarian; OVCAR-8 ovarian; NCI-H522 lung; EKVX NSCLC.
What all share (assay): NCI anticancer screen, dose series, 48 h

Structures are written as SMILES.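 Each compound was tested at five concentrations against cells in 96-well plates for 48 hours. GI50 is the concentration that inhibits growth by half. TGI denotes the concentration required for complete inhibition of growth.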

`CCOC(=O)/C1=C(\C)N(c2ccc(C)cc2)C(=O)c2ccccc2C(=O)c2c(OC(C)=O)ccc(OC(C)=O)c21`: the TGI is 35.7 µM in the test with SR leukemia; 54.4 µM in the test with HL-60(TB) leukemia; 50.5 µM with SN12C renal; 40.6 µM in the test on KM12 colon; > 100 µM in the test on PC-3 prostate; 41.7 µM in the test with LOX IMVI melanoma. Also, the TGI is 36.6 µM in the test on IGROV1 ovarian, > 100 µM in the test with OVCAR-8 ovarian and 74.1 µM with NCI-H522 lung.
Turning to `Nc1c(Cl)ncnc1N[C@@H]1C[C@H]1CO`, the TGI in the test with SR leukemia, in the test on HL-60(TB) leukemia, in the test on EKVX NSCLC, with SN12C renal, in the test on KM12 colon and in the test with PC-3 prostate was > 100 µM each time. Further, the TGI in the test with LOX IMVI melanoma, with IGROV1 ovarian, in the test with OVCAR-8 ovarian and in the test with NCI-H522 lung was > 100 µM each time.
In the case of `O=C1c2ccccc2-c2nc(-c3cccc([N+](=O)[O-])c3)nnc21`, the TGI with SR leukemia is > 100 µM; in the test with HL-60(TB) leukemia, 16.8 µM; in the test with EKVX NSCLC it was 61.1 µM; in the test with SN12C renal it was 45.7 µM; in the test with KM12 colon, > 100 µM; with PC-3 prostate, > 100 µM. Further, the results for the TGI in the test with IGROV1 ovarian, in the test on OVCAR-8 ovarian and with NCI-H522 lung were > 100 µM, 86.7 µM and > 100 µM, respectively.
Consider `CCc1ccc2oc(-c3cc(O)c(-c4nc5cc(CC)ccc5o4)cc3O)nc2c1`, for which the TGI in the test with SR leukemia, with HL-60(TB) leukemia, in the test with EKVX NSCLC, with SN12C renal, in the test with PC-3 prostate and in the test with LOX IMVI melanoma was > 100 µM throughout. The TGI with IGROV1 ovarian and with OVCAR-8 ovarian was > 100 µM throughout.
Take `O=c1c2c([N+](=O)[O-])cccc2nc2[nH]c3ccccc3n12`: the TGI in the test with SR leukemia, in the test with HL-60(TB) leukemia, in the test on EKVX NSCLC, with SN12C renal, in the test on KM12 colon and with PC-3 prostate was > 75 µM in each case. The TGI with LOX IMVI melanoma is > 75 µM; in the test with IGROV1 ovarian, 37.1 µM; in the test on OVCAR-8 ovarian, 31 µM.
`Nc1cccc(Nc2nc3ccccc3nc2NS(=O)(=O)c2ccccc2)c1`: the TGI was 57.8 µM with SR leukemia; 46.6 µM in the test on HL-60(TB) leukemia; > 100 µM in the test with EKVX NSCLC; > 100 µM in the test with SN12C renal; 41.7 µM in the test on KM12 colon; 49.7 µM in the test on PC-3 prostate. Moreover, the TGI is 47.3 µM in the test on LOX IMVI melanoma, 86.9 µM in the test on IGROV1 ovarian and > 100 µM in the test on OVCAR-8 ovarian.
`O=C(OCC1OC2OC(c3ccccc3)(n3ccc4c([N+](=O)[O-])ccnc43)OC2C1OC(=O)c1ccccc1)c1ccccc1` (stereo not given): the TGI in the test on SR leukemia, in the test with HL-60(TB) leukemia, in the test with EKVX NSCLC, with SN12C renal, in the test with KM12 colon and with PC-3 prostate was > 100 µM throughout. Besides, the TGI in the test with LOX IMVI melanoma, in the test on IGROV1 ovarian and in the test on OVCAR-8 ovarian was > 100 µM each time.
In the case of `CN(NC(=O)c1cccs1)C1=NCCCN1`, the TGI in the test on SR leukemia, in the test on HL-60(TB) leukemia, in the test on EKVX NSCLC, in the test with KM12 colon, in the test on PC-3 prostate and in the test on LOX IMVI melanoma was > 100 µM throughout. Further, the TGI in the test on IGROV1 ovarian, in the test on OVCAR-8 ovarian and with NCI-H522 lung was > 100 µM throughout.
On to `Nc1ccc(N=Nc2ccccc2)cc1`, for which the TGI with SR leukemia, in the test with HL-60(TB) leukemia, with EKVX NSCLC, with SN12C renal, in the test with KM12 colon and in the test on PC-3 prostate was > 100 µM in each case. For the same molecule, the TGI with LOX IMVI melanoma, in the test on IGROV1 ovarian and with OVCAR-8 ovarian was > 100 µM throughout.
Consider `C[C@]12CCc3nc(Nc4ccccc4)sc3C1=CC[C@@H]1[C@@H]2CC[C@]2(C)/C(=N/NC(N)=S)CC[C@@H]12`, for which the GI50 was 1.71 µM in the test on SR leukemia; 3.03 µM in the test on HL-60(TB) leukemia; 19.2 µM in the test on EKVX NSCLC; 3.52 µM with SN12C renal; 6.17 µM in the test with KM12 colon; 2.95 µM in the test with PC-3 prostate. Also, the GI50 in the test on IGROV1 ovarian is 3.89 µM; in the test on OVCAR-8 ovarian it was 3.32 µM; in the test with NCI-H522 lung, 3.07 µM. The TGI in the test with SR leukemia was > 100 µM; with HL-60(TB) leukemia, 17 µM; with EKVX NSCLC, > 100 µM; in the test with SN12C renal, > 100 µM; in the test with KM12 colon, > 100 µM; with PC-3 prostate, > 100 µM. The TGI with IGROV1 ovarian, in the test on OVCAR-8 ovarian and in the test on NCI-H522 lung was > 100 µM each time.
Consider `C=CCCC(=O)CC(O)(C(F)(F)F)C(F)(F)F`, for which the TGI in the test on SR leukemia, in the test with HL-60(TB) leukemia, in the test on EKVX NSCLC, in the test with KM12 colon, in the test with PC-3 prostate and in the test with LOX IMVI melanoma was > 100 µM each time. Further, the TGI in the test with IGROV1 ovarian, in the test on OVCAR-8 ovarian and in the test with NCI-H522 lung was > 100 µM each time.
`Cc1ccc(-c2cc(N)n(-c3nc4c(c(=O)n(C)c(=O)n4C)n3C)n2)cc1`: the TGI with SR leukemia, in the test on HL-60(TB) leukemia, in the test with EKVX NSCLC, in the test on SN12C renal, with KM12 colon and with PC-3 prostate was > 100 µM throughout. In addition, the TGI in the test on IGROV1 ovarian, with OVCAR-8 ovarian and in the test with NCI-H522 lung was > 100 µM each time.
`COc1cc(C2SCC(=O)N2c2ccc(-c3ccc(-n4c(-c5ccccc5)nc5ccccc5c4=O)cc3)cc2)cc(OC)c1OC` (stereo not given): the TGI is > 100 µM with SR leukemia; > 100 µM in the test on HL-60(TB) leukemia; > 100 µM with EKVX NSCLC; > 100 µM with SN12C renal; 62.9 µM with KM12 colon; 41.5 µM in the test with PC-3 prostate. The TGI in the test with IGROV1 ovarian is > 100 µM; in the test with OVCAR-8 ovarian it was > 100 µM; in the test with NCI-H522 lung it was 62.3 µM.
Turning to `Cc1cc(C)cc(Nc2cc(=O)[nH]c(=O)[nH]2)c1`, the TGI with SR leukemia, in the test on HL-60(TB) leukemia, with EKVX NSCLC, in the test with SN12C renal, with KM12 colon and in the test with PC-3 prostate was > 100 µM each time. In addition, the TGI in the test with LOX IMVI melanoma, in the test with IGROV1 ovarian and with OVCAR-8 ovarian was > 100 µM throughout.
